Experimental data as given in the NIST ThermoML archive (doi:10.1021/je060271a).
Where “and” joins values, the source holds several entries; their conditions need not be identical. Equal values may be shown once. Numbers after ± are expanded uncertainties.

Details: 283.15 K, Liquid, Vibrating tube method

CCCCCCCC(=O)OCC(COC(=O)CCCCCCC)(COC(=O)CCCCCCC)COC(=O)CCCCCCC [pentaerythritol tetraoctanoate]
Details	mass density
4499.9 kPa	972.9 ± 1.2 kg/m3
4501.9 kPa	972.9 ± 1.2 kg/m3
4502.4 kPa	972.9 ± 1.2 kg/m3
4503 kPa	972.9 ± 1.2 kg/m3 and 972.8 ± 1.2 kg/m3
4503.5 kPa	972.8 ± 1.2 kg/m3 and 972.9 ± 1.2 kg/m3
4505.4 kPa	972.9 ± 1.2 kg/m3
4508 kPa	973 ± 1.2 kg/m3
4510.6 kPa	972.9 ± 1.2 kg/m3
4512.1 kPa	972.8 ± 1.2 kg/m3
4513.2 kPa	972.9 ± 1.2 kg/m3
4519.1 kPa	972.9 ± 1.2 kg/m3
4544.7 kPa	972.8 ± 1.2 kg/m3
4566.3 kPa	972.8 ± 1.2 kg/m3
4589 kPa	972.9 ± 1.2 kg/m3
4613.1 kPa	972.9 ± 1.2 kg/m3
4644 kPa	972.9 ± 1.2 kg/m3
4671.2 kPa	973 ± 1.2 kg/m3
4696.3 kPa	973 ± 1.2 kg/m3
4730.1 kPa	973 ± 1.2 kg/m3
4758.6 kPa	973 ± 1.2 kg/m3
4787.7 kPa	973.1 ± 1.2 kg/m3
4817.5 kPa	973.1 ± 1.2 kg/m3
4847.6 kPa	972.9 ± 1.2 kg/m3
4883.9 kPa	973 ± 1.2 kg/m3
4914.4 kPa	973.1 ± 1.2 kg/m3
4945.7 kPa	973.1 ± 1.2 kg/m3
4982.7 kPa	973.1 ± 1.2 kg/m3
5014 kPa	973.2 ± 1.2 kg/m3
5046.2 kPa	973.1 ± 1.2 kg/m3
5085.5 kPa	973.2 ± 1.2 kg/m3
5118.2 kPa	973.2 ± 1.2 kg/m3
5152.1 kPa	973.1 ± 1.2 kg/m3
5187.4 kPa	973.3 ± 1.2 kg/m3
5230.5 kPa	973.3 ± 1.2 kg/m3
5268 kPa	973.4 ± 1.2 kg/m3
5301.1 kPa	973.3 ± 1.2 kg/m3
5328.4 kPa	973.3 ± 1.2 kg/m3
5360.9 kPa	973.4 ± 1.2 kg/m3
5388.3 kPa	973.3 ± 1.2 kg/m3
5416.4 kPa	973.3 ± 1.2 kg/m3
5445 kPa	973.4 ± 1.2 kg/m3
5479.2 kPa	973.5 ± 1.2 kg/m3
5507.9 kPa	973.4 ± 1.2 kg/m3
5537.9 kPa	973.4 ± 1.2 kg/m3
5567.3 kPa	973.5 ± 1.2 kg/m3
5603.1 kPa	973.6 ± 1.2 kg/m3
5664.1 kPa	973.4 ± 1.2 kg/m3
5695.6 kPa	973.6 ± 1.2 kg/m3
5733.6 kPa	973.7 ± 1.2 kg/m3
5766.5 kPa	973.5 ± 1.2 kg/m3
5806.4 kPa	973.6 ± 1.2 kg/m3
5839.8 kPa	973.6 ± 1.2 kg/m3
5864 kPa	973.6 ± 1.2 kg/m3
5890.1 kPa	973.8 ± 1.2 kg/m3
5912.2 kPa	973.6 ± 1.2 kg/m3
5934.9 kPa	973.7 ± 1.2 kg/m3
5958.4 kPa	973.7 ± 1.2 kg/m3
5985.4 kPa	973.8 ± 1.2 kg/m3
6009 kPa	973.7 ± 1.2 kg/m3
6033.2 kPa	973.8 ± 1.2 kg/m3
6058.3 kPa	973.9 ± 1.2 kg/m3
6083.5 kPa	973.7 ± 1.2 kg/m3
6114.7 kPa	973.7 ± 1.2 kg/m3
6133.8 kPa	973.8 ± 1.2 kg/m3
6146.1 kPa	973.7 ± 1.2 kg/m3
6160.5 kPa	973.8 ± 1.2 kg/m3
6172.9 kPa	973.9 ± 1.2 kg/m3
6185.2 kPa	973.8 ± 1.2 kg/m3
6197.6 kPa	973.8 ± 1.2 kg/m3
6211.8 kPa	973.8 ± 1.2 kg/m3
6223.9 kPa	973.8 ± 1.2 kg/m3
6236.2 kPa	973.9 ± 1.2 kg/m3
6249.3 kPa	973.9 ± 1.2 kg/m3
6264.2 kPa	973.9 ± 1.2 kg/m3
6277.1 kPa	974.1 ± 1.2 kg/m3
6289.8 kPa	973.9 ± 1.2 kg/m3
6302.4 kPa	973.9 ± 1.2 kg/m3
6317.2 kPa	973.8 ± 1.2 kg/m3
6330 kPa	973.9 ± 1.2 kg/m3
6342.8 kPa	974 ± 1.2 kg/m3
6358 kPa	974 ± 1.2 kg/m3
6370.8 kPa	973.9 ± 1.2 kg/m3
6383.6 kPa	973.9 ± 1.2 kg/m3
6399 kPa	973.9 ± 1.2 kg/m3
6412.5 kPa	974 ± 1.2 kg/m3
6425.5 kPa	973.9 ± 1.2 kg/m3
6438.7 kPa	974 ± 1.2 kg/m3
6452 kPa	974 ± 1.2 kg/m3
6467.9 kPa	974 ± 1.2 kg/m3
6481 kPa	974 ± 1.2 kg/m3
6494.5 kPa	974.2 ± 1.2 kg/m3
6510.4 kPa	974 ± 1.2 kg/m3
6523.9 kPa	974 ± 1.2 kg/m3
6537.9 kPa	974.1 ± 1.2 kg/m3
6551.3 kPa	973.9 ± 1.2 kg/m3
6567.7 kPa	974.1 ± 1.2 kg/m3
6581.8 kPa	974 ± 1.2 kg/m3
6596.4 kPa	974.1 ± 1.2 kg/m3
6610.8 kPa	974.1 ± 1.2 kg/m3
6627.5 kPa	974.1 ± 1.2 kg/m3
6641.5 kPa	974.1 ± 1.2 kg/m3
6655.5 kPa	974 ± 1.2 kg/m3
6669.7 kPa	974.1 ± 1.2 kg/m3
6686.6 kPa	974.2 ± 1.2 kg/m3
6700.8 kPa	974.1 ± 1.2 kg/m3
6715.1 kPa	974.1 ± 1.2 kg/m3
6732.2 kPa	974.1 ± 1.2 kg/m3
6746.8 kPa	974.1 ± 1.2 kg/m3
6761.4 kPa	974.2 ± 1.2 kg/m3
6776.5 kPa	974.1 ± 1.2 kg/m3
6793.7 kPa	974.1 ± 1.2 kg/m3
6808.6 kPa	974.2 ± 1.2 kg/m3
6823.5 kPa	974.2 ± 1.2 kg/m3
6838.3 kPa	974 ± 1.2 kg/m3
6856.4 kPa	974.1 ± 1.2 kg/m3
6871.7 kPa	974.2 ± 1.2 kg/m3
6886.9 kPa	974.2 ± 1.2 kg/m3
6902.1 kPa	974.3 ± 1.2 kg/m3
6920.2 kPa	974.3 ± 1.2 kg/m3
6935.4 kPa	974.3 ± 1.2 kg/m3
6950.9 kPa	974.3 ± 1.2 kg/m3
6969.4 kPa	974.3 ± 1.2 kg/m3
6985 kPa	974.3 ± 1.2 kg/m3
7001 kPa	974.3 ± 1.2 kg/m3
7016.8 kPa	974.3 ± 1.2 kg/m3
7035.6 kPa	974.3 ± 1.2 kg/m3
7051.3 kPa	974.3 ± 1.2 kg/m3
7067 kPa	974.3 ± 1.2 kg/m3
7083.6 kPa	974.3 ± 1.2 kg/m3
7102.8 kPa	974.3 ± 1.2 kg/m3
7119 kPa	974.3 ± 1.6 kg/m3
7135.2 kPa	974.4 ± 1.2 kg/m3
7154.7 kPa	974.4 ± 1.2 kg/m3
7171.1 kPa	974.3 ± 1.2 kg/m3
7187.5 kPa	974.3 ± 1.2 kg/m3
7204.5 kPa	974.4 ± 1.2 kg/m3
7221.2 kPa	974.5 ± 1.2 kg/m3
7241.1 kPa	974.5 ± 1.2 kg/m3
7257.8 kPa	974.4 ± 1.2 kg/m3
7274.9 kPa	974.6 ± 1.2 kg/m3
7295 kPa	974.5 ± 1.2 kg/m3
7311.7 kPa	974.4 ± 1.2 kg/m3
7329.3 kPa	974.4 ± 1.2 kg/m3
7346.6 kPa	974.5 ± 1.2 kg/m3
7367.1 kPa	974.6 ± 1.2 kg/m3
7384.6 kPa	974.5 ± 1.2 kg/m3
7402.3 kPa	974.6 ± 1.2 kg/m3
7423.4 kPa	974.5 ± 1.2 kg/m3
